From patent US12628829B2, “Compositions comprising recombianant Bacillus cells and an insecticide” (BASF CORPORATION, priority 2014, dated 2026)

Test system: Maize
Assay: Plant growth promotion, maize whole plant biomass after soil drench
Format: in vivo
Description: For instance, the formula and analysis can be applied to an evaluation of plant growth promotion. Such an assay is evaluated several days after the applications to plants. 100% means plant weight which corresponds to that of the untreated control plant. Efficacy means in this case the additional % of plant weight in comparison to that of the untreated control.
Experiments were conducted to analyze efficacy of a combination of flupyradifurone and a fermentation product of recombinant Bacillus thuringiensis cells expressing phospholipase C (“BEPC”). Maize seeds were grown in sterile mixture of synthetic media and sand in small three-inch square pots on light racks in a plant growth room at 25-28° C. and 50% humidity for about 14 days. Two seeds were planted in each pot. At planting, the growing media in each pot was drenched with the treatments described below. After 14 days, plants were measured for whole plant biomass. In the tables below, UTC refers to untreated control. “Calculated” refers to the expected effect calculated using the above-described Colby equation and “Efficacy” refers to the actual effect observed.
The SIVANTO® product, which contains flupyradifurone as its active ingredient (17.09% flupyradifurone), was diluted in 50 mL water and the diluted solution was used to drench the growing media. The application rate shown below refers to the amount of active ingredient (i.e., flupyradifurone) applied to the growing media.
A recombinant Bacillus cereus family member (Bacillus thuringiensis BT013A) expressing phospholipase C on its exosporium (BEPC) was generated as follows. […]
To obtain whole broth cultures of BEPC, 15 ml conicals containing brain heart infusion media (BHI) were inoculated with BEPC and grown for 7-8 hours at around 30° C. at a shaker setting of 300 rpm. […] After approximately 2 days of incubation, when sporulation was at least 95% completed, the culture broth was harvested and colony forming units calculated. […]

SMILES: O=C1C=C(N(Cc2ccc(Cl)nc2)CC(F)F)CO1 [Flupyradifurone, flupyradifurone]
- Efficacy % (actual effect observed: additional % of plant weight versus UTC, 14 days): 3%
- Whole Plant Biomass (growing media drenched at planting, measured after 14 days, flupyradifurone 1.36 mg/pot, BEPC 7 × 10^8 CFU/pot): 3.50 g
- Found % (plant weight relative to UTC = 100, drench at planting, 14 days): 103%
